Series [1] concerns the target T1, Alpha-ketoglutarate-dependent dioxygenase FTO (Homo sapiens, UniProt Q9C0B1). Description: Inhibition of human FTO assessed as reduction in enzyme-mediated demethylation of m6A-ssDNA incubated for 2 hrs by PAGE analysis.
Target sequence in this assay (Q9C0B1 whole entry): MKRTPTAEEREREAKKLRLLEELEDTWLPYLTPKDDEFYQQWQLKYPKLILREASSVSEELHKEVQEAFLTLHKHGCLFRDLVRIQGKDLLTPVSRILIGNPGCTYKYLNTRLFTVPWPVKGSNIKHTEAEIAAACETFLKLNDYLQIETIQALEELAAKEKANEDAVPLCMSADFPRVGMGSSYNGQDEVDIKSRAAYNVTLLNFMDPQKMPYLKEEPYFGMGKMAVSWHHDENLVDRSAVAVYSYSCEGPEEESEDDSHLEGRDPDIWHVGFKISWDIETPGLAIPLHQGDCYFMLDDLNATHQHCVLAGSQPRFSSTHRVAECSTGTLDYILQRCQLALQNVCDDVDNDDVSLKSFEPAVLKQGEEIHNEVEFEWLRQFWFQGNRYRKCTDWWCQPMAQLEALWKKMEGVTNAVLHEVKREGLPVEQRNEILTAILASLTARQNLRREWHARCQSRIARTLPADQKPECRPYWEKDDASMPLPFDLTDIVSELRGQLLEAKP
Series [2] deals with A549. Description: Antiproliferative activity against human A549 cells assessed as inhibition of cell growth. The class given is functional, cell-based.
The nature of series [3]: Antiproliferative activity against human A549R cells assessed as inhibition of cell growth. The class given is functional, cell-based.
The subject of a further series is NB-4. Description: Antiproliferative activity against human NB4 cells assessed as inhibition of cell growth. The class given is functional, cell-based.
Series [4] in a line: Cytotoxicity against HLF cells assessed as inhibition of cell growth. Type of series: toxicity, cell-based. The conditions noted are these: human.
Series [5] in a line: Selectivity index, ratio of IC50 for cytotoxicity against HLF cells to IC50 for antiproliferative activity against human A549 cells. Type of series: cell-based. The settings on record: HLF cells versus A549 cells, read-out: Ratio IC50.
The nature of series [6]: Antiproliferative activity against mouse A261 cells assessed as inhibition of cell growth. The class given is functional, cell-based.
In series [7] the target is T1, Alpha-ketoglutarate-dependent dioxygenase FTO. Briefly: Inhibition of human FTO assessed as reduction in enzyme-mediated demethylation of m6A-ssDNA at 12.5 uM incubated for 2 hrs by PAGE analysis.
Target sequence in this assay (Q9C0B1 whole entry, looked up): as the sequence (Q9C0B1 whole entry) above
Series [8] concerns A549. Briefly: Effect on FTO expression in human A549 cells at 3 to 9 uM incubated for 24 hrs by Western blot analysis. Type of series: functional, cell-based. The settings on record: dose 3-9 µM. On the technique in general: A western blot detects proteins with antibodies after separation by electrophoresis.
In series [9] the target is T1, Alpha-ketoglutarate-dependent dioxygenase FTO. Description: Inhibition of FTO in human A549 cells assessed as upregulation of gammaH2AX protein expression at 3 to 9 uM incubated for 24 hrs by Western blot analysis. Type of series: cell-based. The conditions noted are these: dose 3-9 µM.
Target sequence in this assay (Q9C0B1 whole entry, looked up): as the sequence (Q9C0B1 whole entry) above
Series [10] has the same target. Briefly: Inhibition of FTO in human A549 cells assessed as upregulation of p53 protein expression incubated for 24 hrs by Western blot analysis. The class given is cell-based. The conditions noted are these: dose 3-9 µM.
Target sequence in this assay (Q9C0B1 whole entry, looked up): as the sequence (Q9C0B1 whole entry) above
The test system of series [11] is A549. Description: Induction of autophagy in human A549 cells assessed as upregulation of LC3-II protein expression at 3 to 9 uM incubated for 24 hrs by Western blot analysis. The class given is functional, cell-based. The settings on record: dose 3-9 µM.
The test system of series [12] is A549. Description: Induction of autophagy in human A549 cells assessed as downregulation of p62 protein expression at 3 to 9 uM incubated for 24 hrs by Western blot analysis. The class given is functional, cell-based. The settings on record: dose 3-9 µM.
Series [13] deals with A549. Description: Antiproliferative activity against human A549 cells cultured as 3D spheroids assessed as decrease in multicellular tumor spheroid size at 20 uM treated for 5 days by live-cell phase-contrast microscopy. Type of series: functional, cell-based. The conditions noted are these: time 5.0 day.

The source made the active and inactive calls. No cut-off for these calls is given here.

Turning to `CN(C)CCN1C(=O)c2cccc3cc([N+](=O)[O-])cc(c23)C1=O` [MITONAFIDE], the IC50 in series [1] was found to be 34.8 µM; in the series on A549 [2], 1.5 µM; in series [3], 1.8 µM; in the series on NB-4 it was 3.4 µM; in series [4], 2.8 µM; in [6] it was 2.8 µM. In addition, the selectivity ratio in series [5] was 1.9.
Consider `C#CCN(C)CCN1C(=O)c2cccc3cc([N+](=O)[O-])cc(c23)C1=O`, for which the IC50 (in the series with A549 [2]; in series [3]; in the series with NB-4; in [4]; in series [6]) was greater than 20 µM in each case.
For the compound `CN(C)CCN1C(=O)c2cccc3cc(N)cc(c23)C1=O` [AMONAFIDE], the IC50 in the series on A549 [2] amounted to 4.3 µM; in series [3], 9.5 µM; with NB-4, 5.7 µM; in series [4] it was 8.8 µM; in series [6], 9.2 µM.
On to `CN(C)CCN1C(=O)c2cccc3cc(NC(=O)c4ccccn4)cc(c23)C1=O`, for which the inhibition entry in series [7] and in [9] was “Active” in each case. Besides, the IC50 in series [1] amounted to 4.5 µM; in the series with A549 [2], 2.8 µM; in [3] it was 4.5 µM; in the series with NB-4, 1.5 µM; in series [4], 9.9 µM; in series [6] it was 3.3 µM. Also, the selectivity ratio in [5] is 3.5. For the same compound, in the series with A549 [8], the outcome was inactive. The inhibition entry in series [10] is “Dose-Dependent Effect”. Further, the result in the series with A549 [11], in the series with A549 [12] and with A549 [13] was Active.
Regarding `C=CC(=O)N(C)CCN1C(=O)c2cccc3cc(N)cc(c23)C1=O`, the IC50 (in the series with A549 [2]; in series [3]; in the series on NB-4; in [4]; in [6]) was greater than 20 µM each time.
With `C#CCCCCNCCN1C(=O)c2cccc3cc(NC(=O)c4ccccn4)cc(c23)C1=O`, the IC50 with A549 [2] is 4.7 µM; in [3], 9.5 µM; in the series on NB-4, 9.8 µM; in series [6], 5.3 µM.
Take `C=CC(=O)N(C)CCN1C(=O)c2cccc3cc([N+](=O)[O-])cc(c23)C1=O`: the IC50 (in the series on A549 [2]; in series [3]; with NB-4; in [4]; in series [6]) was greater than 20 µM each time.
Regarding `O=C(Nc1cc2c3c(cccc3c1)C(=O)N(CCN1C(=O)C=CC1=O)C2=O)c1ccccn1`, the IC50 (in the series with A549 [2]; in series [3]; with NB-4; in series [6]) was greater than 20 µM each time.
For the compound `C#CCN(C)CCN1C(=O)c2cccc3cc(NC(=O)C=C)cc(c23)C1=O`, the IC50 in the series on A549 [2] is greater than 20 µM; in series [3] it was greater than 20 µM; with NB-4 it was 13.9 µM; in series [4], greater than 20 µM; in [6], greater than 20 µM.
Regarding `C#CCCC1(CCNCCN2C(=O)c3cccc4cc(NC(=O)c5ccccn5)cc(c34)C2=O)N=N1`, the IC50 with A549 [2] was greater than 20 µM; in [3], greater than 20 µM; in the series on NB-4, 10.6 µM; in series [6] it was 8.5 µM.
In the case of `C#CCN(C)CCN1C(=O)c2cccc3cc(N)cc(c23)C1=O`, the IC50 (in the series on A549 [2]; in series [3]; in the series on NB-4; in series [4]; in series [6]) was greater than 20 µM throughout.
For `CNCCN1C(=O)c2cccc3cc([N+](=O)[O-])cc(c23)C1=O`, the inhibition result in series [7] and in [9] was “Active” in each case. In addition, the IC50 is 5.7 µM in series [1]; 2.8 µM in the series with A549 [2]; 6.2 µM in [3]; 7 µM in the series with NB-4; 6.9 µM in [4]; 2.5 µM in series [6]. The selectivity ratio in series [5] is 2.5. In addition, in the series with A549 [8], the outcome was inactive. Further, in [10], the inhibition entry was “Dose-Dependent Effect”. Also, the outcome with A549 [11], in the series with A549 [12] and in the series on A549 [13] was Active.
With `CNCCN1C(=O)c2cccc3cc(NC(=O)c4ccccn4)cc(c23)C1=O`, the IC50 in the series with A549 [2] was 2.9 µM; in [3] it was 7.2 µM; with NB-4, 12.9 µM; in series [6], 3.5 µM.
For `NCCN1C(=O)c2cccc3cc(NC(=O)c4ccccn4)cc(c23)C1=O`, the IC50 with A549 [2] amounted to 5.2 µM; in [3] it was 7.3 µM; in the series with NB-4, 8.4 µM; in [6], 4.1 µM.

As a reminder, the IC50 is the concentration that inhibits the measured activity by half.
